Measured values as given in patent US9730940B2, “Purine inhibitors of human phosphatidylinositol 3-kinase delta” (priority 2012, dated 2017).

Target: PI3K-alpha (Homo sapiens (Human), UniProt P42336)
Assay: HTRF PI3K biochemical assay, alpha isoform
Settings: ratio PI3K-alpha IC50 value/PI3K-delta IC50 value

Chain of PI3K-alpha (P42336 whole entry, looked up, canonical isoform): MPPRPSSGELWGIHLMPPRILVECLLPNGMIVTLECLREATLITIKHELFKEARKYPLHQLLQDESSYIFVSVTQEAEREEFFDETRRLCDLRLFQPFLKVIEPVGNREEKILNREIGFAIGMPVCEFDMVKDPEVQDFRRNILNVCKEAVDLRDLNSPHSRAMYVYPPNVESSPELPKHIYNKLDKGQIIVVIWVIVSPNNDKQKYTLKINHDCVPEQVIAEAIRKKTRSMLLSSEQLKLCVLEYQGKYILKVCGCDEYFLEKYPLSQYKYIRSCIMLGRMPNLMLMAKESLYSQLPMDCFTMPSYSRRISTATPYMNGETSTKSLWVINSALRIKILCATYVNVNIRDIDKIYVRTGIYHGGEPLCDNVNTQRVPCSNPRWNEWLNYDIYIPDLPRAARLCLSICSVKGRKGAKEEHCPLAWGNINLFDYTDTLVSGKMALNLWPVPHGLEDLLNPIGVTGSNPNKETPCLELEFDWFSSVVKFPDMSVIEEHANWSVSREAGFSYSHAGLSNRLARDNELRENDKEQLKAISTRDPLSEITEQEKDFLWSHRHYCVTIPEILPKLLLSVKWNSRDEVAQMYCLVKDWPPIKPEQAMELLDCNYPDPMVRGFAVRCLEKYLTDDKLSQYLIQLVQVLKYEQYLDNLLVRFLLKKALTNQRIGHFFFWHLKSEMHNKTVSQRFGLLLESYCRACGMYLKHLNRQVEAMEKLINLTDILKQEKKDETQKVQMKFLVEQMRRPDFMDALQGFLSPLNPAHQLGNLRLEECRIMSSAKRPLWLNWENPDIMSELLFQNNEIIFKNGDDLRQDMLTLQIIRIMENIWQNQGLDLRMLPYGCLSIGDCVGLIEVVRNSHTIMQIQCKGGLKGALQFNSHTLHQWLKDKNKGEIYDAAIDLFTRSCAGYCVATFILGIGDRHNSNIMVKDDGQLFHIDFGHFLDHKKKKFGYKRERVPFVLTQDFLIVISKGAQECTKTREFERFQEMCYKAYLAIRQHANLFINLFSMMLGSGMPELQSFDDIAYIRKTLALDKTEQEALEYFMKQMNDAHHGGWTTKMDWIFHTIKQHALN
Chain of PI3K-alpha (P27986 whole entry partner, looked up, canonical isoform): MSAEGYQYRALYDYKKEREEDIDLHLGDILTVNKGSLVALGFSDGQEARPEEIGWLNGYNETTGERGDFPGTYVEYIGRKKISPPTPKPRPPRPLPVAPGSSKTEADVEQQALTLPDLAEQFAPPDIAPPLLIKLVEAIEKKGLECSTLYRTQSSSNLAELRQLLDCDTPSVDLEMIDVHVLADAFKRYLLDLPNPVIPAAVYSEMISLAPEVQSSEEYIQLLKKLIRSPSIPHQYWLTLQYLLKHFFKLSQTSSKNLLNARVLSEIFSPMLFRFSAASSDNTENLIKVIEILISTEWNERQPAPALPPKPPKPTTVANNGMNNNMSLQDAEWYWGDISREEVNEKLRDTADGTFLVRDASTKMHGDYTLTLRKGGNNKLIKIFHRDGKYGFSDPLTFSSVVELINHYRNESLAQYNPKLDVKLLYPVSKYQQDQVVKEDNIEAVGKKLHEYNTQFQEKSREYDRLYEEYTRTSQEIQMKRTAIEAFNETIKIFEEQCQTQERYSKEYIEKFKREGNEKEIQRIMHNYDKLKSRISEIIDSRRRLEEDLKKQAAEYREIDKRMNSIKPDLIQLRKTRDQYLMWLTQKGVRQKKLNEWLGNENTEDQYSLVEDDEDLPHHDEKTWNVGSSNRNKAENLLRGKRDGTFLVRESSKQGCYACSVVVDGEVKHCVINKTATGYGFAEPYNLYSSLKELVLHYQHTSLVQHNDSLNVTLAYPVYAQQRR

Structure (SMILES)	Relative Selectivity versus PI3Kalpha
CCn1c(-c2cnc(C)nc2)nc2c(O[C@H]3C[C@H](NC(=O)OC(C)(C)C)C3)ncnc21 [Compound 9-6, tert-butyl (trans-3-{[9-ethyl-8-(2-methylpyrimidin-5-yl)-9H-purin-6-yl]oxy}cyclobutyl)carbamate]	>10
CCn1ncc(-c2nc3c(O[C@H]4CCN(C(=O)c5cocn5)C4)ncnc3n2C)c1C [Compound 2-88, 8-(1-ethyl-5-methyl-1H-pyrazol-4-yl)-9-methyl-6-{[(3S)-1-(1,3-oxazol-4-ylcarbonyl)pyrrolidin-3-yl]oxy}-9H-purine]	>10
CCn1ncc(-c2nc3c(O[C@H]4CCN(C(=O)c5ccnn5C)C4)ncnc3n2C)c1C [Compound 2-36, 8-(1-ethyl-5-methyl-1H-pyrazol-4-yl)-9-methyl-6-({(3S)-1-[(1-methyl-1H-pyrazol-5-yl)carbonyl]pyrrolidin-3-yl}oxy)-9H-purine]	>10
CCC(=O)N1CC[C@H](Oc2ncnc3c2nc(-c2cnc(OC)c(C)c2)n3CC)C1 [Compound 2-89, (S)-1-(3-((9-ethyl-8-(6-methoxy-5-methylpyridin-3-yl)-9H-purin-6-yl)oxy)pyrrolidin-1-yl)propan-1-one]	>10
CCn1c(-c2cnc(C)nc2)nc2c(O[C@H]3CCN(C(=O)C4CCC4C)C3)ncnc21 (single isomer, unassigned) [Compound 2-118, 9-ethyl-6-({(3S)-1-[([(1R,2S) or (1R,2R) or (1S,2R) or (1S,2S)]-methylcyclobutyl)carbonyl]pyrrolidin-3-yl}oxy)-8-(2-methylpyrimidin-5-yl)-9H-purine]	>10
CCn1c(-c2cnc(C)nc2)nc2c(OC3CN(C(=O)C4CC4)CC34CC4)ncnc21 (stereo not shown) [Compound 3-63, (R— or S—)-6-{[5-(cyclopropylcarbonyl)-5-azaspiro[2.4]hept-7-yl]oxy}-9-ethyl-8-(2-methylpyrimidin-5-yl)-9H-purine]	>10
CCn1ncc(-c2nc3c(O[C@H]4CCN(C(=O)c5cc(C)[nH]n5)C4)ncnc3n2C)c1C [Compound 2-75, 8-(1-ethyl-5-methyl-1H-pyrazol-4-yl)-9-methyl-6-({(3S)-1-[(5-methyl-1H-pyrazol-3-yl)carbonyl]pyrrolidin-3-yl}oxy)-9H-purine]	5
CCn1c(-c2ccnc(OC)c2)nc2c(O[C@H]3CCN(C(=O)C4CC4)C3)ncnc21 [Compound 2-144, 6-{[(3S)-1-(cyclopropylcarbonyl)pyrrolidin-3-yl]oxy}-9-ethyl-8-(2-methoxypyridin-4-yl)-9H-purine]	>10
CCn1c(-c2ccc(OC(F)F)nc2)nc2c(O[C@H]3CCN(C(=O)C4CC4)C3)ncnc21 [Compound 2-147, 6-{[(3S)-1-(cyclopropylcarbonyl)pyrrolidin-3-yl]oxy}-8-[6-(difluoromethoxy)pyridin-3-yl]-9-ethyl-9H-purine]	>10
CCC(=O)N1CC[C@H](Oc2ncnc3c2nc(-c2cnc4[nH]ccc4c2)n3C)C1 [Compound 3-3, (S)-1-(3-((9-methyl-8-(1H-pyrrolo[2,3-b]pyridin-5-yl)-9H-purin-6-yl)oxy)pyrrolidin-1-yl)propan-1-one]	>10
CCn1ncc(-c2nc3c(O[C@H]4CCN(c5ncnc6c5cnn6C)C4)ncnc3n2C)c1C [Compound 7-14, 4-[(3S)-3-{[8-(1-ethyl-5-methyl-1H-pyrazol-4-yl)-9-methyl-9H-purin-6-yl]oxy}pyrrolidin-1-yl]-1-methyl-1H-pyrazolo[3,4-d]pyrimidine]	>10
CCn1ncc(-c2nc3c(O[C@H]4CCN(C(=O)c5cc(C)nn5C)C4)ncnc3n2C)c1C [Compound 2-38, 6-({(3S)-1-[(1,3-dimethyl-1H-pyrazol-5-yl)carbonyl]pyrrolidin-3-yl}oxy)-8-(1-ethyl-5-methyl-1H-pyrazol-4-yl)-9-methyl-9H-purine]	7
CCC(=O)N1CC[C@H](Oc2ncnc3[nH]c(-c4cnn(CC)c4C)nc23)C1 [Compound 3-13, 8-(1-ethyl-5-methyl-1H-pyrazol-4-yl)-6-{[(3S)-1-propanoylpyrrolidin-3-yl]oxy}-9H-purine]	>10
CCn1ncc(-c2nc3c(O[C@H]4CCN(C(=O)C5CCOC(C)(C)C5)C4)ncnc3n2C)c1C (stereo partly drawn) [Compound 2-24, 6-({(3S)-1-[(2,2-dimethyltetrahydro-2H-pyran-4-yl)carbonyl]pyrrolidin-3-yl}oxy)-8-(1-ethyl-5-methyl-1H-pyrazol-4-yl)-9-methyl-9H-purine]	>10
CCn1c(-c2cnc(C)nc2)nc2c(OC3CN(C(=O)C4CC4)CC3C)ncnc21 (single isomer, unassigned) [Compound 3-65, [(3S,4R) or (3R,4S)]6-{[1-(cyclopropylcarbonyl)-4-methylpyrrolidin-3-yl]oxy}-9-ethyl-8-(2-methylpyrimidin-5-yl)-9H-purine]	>10
CCn1c(-c2cnc(C)nc2)nc2c(O[C@H]3CCN(c4ccccn4)C3)ncnc21 [Compound 7-17, 9-ethyl-8-(2-methylpyrimidin-5-yl)-6-{[(3S)-1-pyridin-2-ylpyrrolidin-3-yl]oxy}-9H-purine]	>10

Structure (SMILES)	Relative Selectivity versus PI3Kalpha
CCn1ncc(-c2nc3c(O[C@H]4CCNC4)ncnc3n2C)c1C [Compound 1-2, 8-(1-ethyl-5-methyl-1H-pyrazol-4-yl)-9-methyl-6-[(3S)-pyrrolidin-3-yloxy]-9H-purine]	>5
Cn1c(-c2ccc(-n3cccn3)cc2)nc2c(O[C@H]3CCN(C(=O)OC(C)(C)C)C3)ncnc21 [Compound 1-15, tert-butyl (3S)-3-({9-methyl-8-[4-(1H-pyrazol-1-yl)phenyl]-9H-purin-6-yl}oxy)pyrrolidine-1-carboxylate]	>10
CN(C)c1ccc(-c2nc3c(O[C@H]4CCN(C(=O)OC(C)(C)C)C4)ncnc3n2C)cn1 [Compound 1-20, tert-butyl (3S)-3-{[8-(6-(dimethylamino)pyridin-3-yl]-9-methyl-9H-purin-6-yl}oxy)pyrrolidine-1-carboxylate]	>10
CCn1ncc(-c2nc3c(O[C@H]4CCN(C(=O)c5ccno5)C4)ncnc3n2C)c1C [Compound 2-32, 8-(1-ethyl-5-methyl-1H-pyrazol-4-yl)-6-{[(3S)-1-(isoxazol-5-ylcarbonyl)pyrrolidin-3-yl]oxy}-9-methyl-9H-purine]	>10
CCOC(=O)N1CC[C@H](Sc2ncnc3c2nc(-c2cnn(CC)c2C)n3C)C1 [Compound 10-8, (S)-ethyl 3-((8-(1-ethyl-5-methyl-1H-pyrazol-4-yl)-9-methyl-9H-purin-6-yl)thio)pyrrolidine-1-carboxylate]	>10
CCn1c(-c2cnc(C)nc2)nc2c(O[C@H]3CCN(C(=O)N4CCC(C)(O)C4)C3)ncnc21 (stereo partly drawn) [Compound 5-20, 1-{[(3S)-3-{[9-ethyl-8-(2-methylpyrimidin-5-yl)-9H-purin-6-yl]oxy}pyrrolidin-1-yl]carbonyl}-3-methylpyrrolidin-3-ol]	>10
COC1CC(c2nc3c(OC4CCN(C(=O)OC(C)(C)C)C4)ncnc3n2C)C1 [Compound 1-31, (S)-tert-butyl 3-((8-(3-methoxycyclobutyl)-9-methyl-9H-purin-6-yl)oxy)pyrrolidine-1-carboxylate]	>5
CCn1c(-c2cnc(C)nc2)nc2c(O[C@H]3CCN(C(=O)C4CC4C)C3)ncnc21 (stereo partly drawn) [Compound 2-108, 9-ethyl-6-({(3S)-1-[(2-methylcyclopropyl)carbonyl]pyrrolidin-3-yl}oxy)-8-(2-methylpyrimidin-5-yl)-9H-purine]	>10
CCn1ncc(-c2nc3c(O[C@H]4CCN(C(=O)c5nc6cc(Cl)ccn6n5)C4)ncnc3n2C)c1C [Compound 2-47, 6-({(3S)-1-[(7-chloro[1,2,4]triazolo[1,5-a]pyridin-2-yl)carbonyl]pyrrolidin-3-yl}oxy)-8-(1-ethyl-5-methyl-1H-pyrazol-4-yl)-9-methyl-9H-purine]	1
CCCn1c(-c2cnc(C)nc2)nc2c(O[C@H]3CCN(C(=O)CC)C3)ncnc21 [Compound 3-19, 8-(2-methylpyrimidin-5-yl)-6-{[(3S)-1-propanoylpyrrolidin-3-yl]oxy}-9-propyl-9H-purine]	>10
CCNC(=O)N1CC[C@H](Oc2ncnc3c2nc(-c2cnn(CC)c2C)n3C)C1 [Compound 5-7, (S)-N-ethyl-3-((8-(1-ethyl-5-methyl-1H-pyrazol-4-yl)-9-methyl-9H-purin-6-yl]oxy}pyrrolidine-1-carboxamide]	>10
CCn1ncc(-c2nc3c(O[C@H]4CCN(c5nccc(-c6ccco6)n5)C4)ncnc3n2C)c1C [Compound 7-10, 8-(1-ethyl-5-methyl-1H-pyrazol-4-yl)-6-{[(3S)-1-(4-furan-2-ylpyrimidin-2-yl)pyrrolidin-3-yl]oxy}-9-methyl-9H-purine]	>10
CCn1c(C(=O)NC2CCCCC2)nc2c(O[C@H]3CCN(C(=O)OC(C)(C)C)C3)ncnc21 [Compound 15-4, tert-butyl (3S)-3-{[8-(cyclohexylcarbamoyl)-9-ethyl-9H-purin-6-yl]oxy}pyrrolidine-1-carboxylate]	>10
CCC(=O)N1CC[C@H](Oc2ncnc3c2nc(-c2cnc(C)nc2)n3CC)C1 [Compound 2-25, 9-ethyl-8-(2-methylpyrimidin-5-yl)-6-{[(3S)-1-propanoylpyrrolidin-3-yl]oxy}-9H-purine]	>10
CCn1ncc(-c2nc3c(S[C@H]4CCN(C(=O)C5CC5)C4)ncnc3n2C)c1C [Compound 10-7, (S)-cyclopropyl(3-((8-(1-ethyl-5-methyl-1H-pyrazol-4-yl)-9-methyl-9H-purin-6-yl)thio)pyrrolidin-1-yl)methanone]	>10
